Tests used:
[1] = target: T1, human EAAT3 (Homo sapiens, UniProt P43005); assay: FLIPR Membrane Potential (FMP) assay; type: cell-based; settings: HEK-293 cells stably expressing human EAAT3; L-glutamate as agonist at 80% of maximum response; antagonist applied 15 min before; Kb by Cheng-Prusoff from IC50
T1 construct: expressed in transfected cells
T1 sequence (P43005 1-524): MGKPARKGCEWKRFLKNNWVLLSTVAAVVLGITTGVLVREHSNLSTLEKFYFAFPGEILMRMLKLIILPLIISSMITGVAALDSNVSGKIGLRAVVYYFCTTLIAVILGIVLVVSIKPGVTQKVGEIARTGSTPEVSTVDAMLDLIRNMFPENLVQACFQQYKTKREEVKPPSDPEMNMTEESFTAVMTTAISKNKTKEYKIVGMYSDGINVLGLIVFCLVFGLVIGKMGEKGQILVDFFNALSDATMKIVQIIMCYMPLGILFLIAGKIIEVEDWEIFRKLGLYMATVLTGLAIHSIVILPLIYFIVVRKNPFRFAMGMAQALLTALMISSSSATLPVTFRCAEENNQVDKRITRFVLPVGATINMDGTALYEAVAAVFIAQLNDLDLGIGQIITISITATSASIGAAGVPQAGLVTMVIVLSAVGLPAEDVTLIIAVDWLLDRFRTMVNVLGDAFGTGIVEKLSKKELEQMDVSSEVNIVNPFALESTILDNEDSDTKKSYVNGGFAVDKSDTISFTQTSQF
Method: The FLIPR Membrane Potential (FMP) Assay
HEK-293 cells stably expressing human EAAT3 were seeded at 55 000 cells/well in growth medium (DMEM glutamate free (Invitrogen 11960-044), 1% Pen Strep (10 ml/l GIBCO BRL N^o 15140-023), 10% FCS non dialysed heat inactivated, 5 mg/l puromycin) in poly-D-lysine treated 96-well black microtiter plates with clear-bottom. After 24 h, the growth medium was removed and 100 μl/well of Krebs buffer (140 mM NaCl, 4.7 mM KCl, 2.5 mM CaCl2, 1.2 mM MgCl2, 11 mM HEPES, 10 mM D-glucose, pH=7.4) added. The cells were then loaded by adding 100 μl/well FMP assay dye (FLIPR Membrane Potential assay reagent, Molecular Devices). The 96-well plates were then incubated at 37° C. for 1 h. The depolarization of the cells will cause more dye to enter in the cells, where it will bind to intracellular proteins and lipids and cause an increase in the fluorescence signal. Antagonist potency at human EAAT3 was determined by using L-glutamate as agonist at a concentration which gives 80% of the maximum response. The antagonists were applied 15 min before the application of the agonist L-glutamate. The assays were performed at room temperature and measurements done by using a Fluorometric Imaging Plate Reader (FLIPR, Molecular Devices) and filter #2. Responses were measured as peak increase in fluorescence minus basal (i.e. fluorescence without addition of L-glutamate). Kb was determined using the Cheng-Prusoff equation Kb=IC50/[1+(A/EC50)], where IC50 is the concentration of the antagonist producing 50% inhibition, A is the concentration of the agonist against which the IC50 is being determined ([…]) and EC50 is the concentration of the agonist producing […].

Row | Structure (SMILES) | melting point [°C] | Kb [1] [nM]
1 | CC(C)n1nccc1-c1cc(C(=O)NC(C)(C)C)cc(-c2ccc(Cl)c(F)c2)c1 [Example 16, N-tert-Butyl-3-(4-chloro-3-fluoro-phenyl)-5-(2-propan-2-yl-pyrazol-3-yl)-benzamide] | 87 | 310
2 | CCC(C)(C)NC(=O)c1cc(-c2ccc(Cl)cc2)cc(-c2ccnn2C(C)(C)C)c1 [Example 18, 3-(2-tert-Butyl-pyrazol-3-yl)-5-(4-chlorophenyl)-N-(2-methyl-butan-2-yl)-benzamide] | 183.5 | 3420
3 | CCC(C)(C)NC(=O)c1cc(-c2ccc(Cl)cc2)cc(-c2ccnn2C(C)C)c1 [Example 19, 3-(4-Chlorophenyl)-N-(2-methyl-butan-2-yl)-5-(2-propan-2-yl-pyrazol-3-yl)-benzamide] | 72.5 | 890
4 | CC(C)(C#N)NC(=O)c1cc(-c2ccc(Cl)cc2)cc(-c2ccnn2C(C)(C)C)c1 [Example 22, 3-(2-tert-Butylpyrazol-3-yl)-5-(4-chlorophenyl)-N-(2-cyanopropan-2-yl)-benzamide] | 119 | 370
5 | Cc1cc(-c2cc(C(=O)NC(C)(C)C)cc(-c3ccnn3C(C)(C)C)c2)ccc1F [Example 27, N-tert-Butyl-3-(2-tert-butyl-pyrazol-3-yl)-5-(4-fluoro-3-methyl-phenyl)-benzamide] | 186 | 930
6 | CC(C)(C)NC(=O)c1cc(-c2ccccc2)cc(-c2ccnn2C(C)(C)C)c1 [Example 28, N-tert-Butyl-3-(2-tert-butyl-pyrazol-3-yl)-5-phenyl-benzamide] | 199.5 | 470
7 | Cc1ccc(-c2cc(C(=O)NC(C)(C)C)cc(-c3ccnn3C(C)(C)C)c2)cc1F [Example 29, N-tert-Butyl-3-(2-tert-butyl-pyrazol-3-yl)-5-(3-fluoro-4-methyl-phenyl)-benzamide] | 202 | 390
8 | Cc1ccc(-c2cc(C(=O)NC(C)(C)C)cc(-c3ccnn3C(C)(C)C)c2)cc1 [Example 30, N-tert-Butyl-3-(2-tert-butyl-pyrazol-3-yl)-5-(4-methyl-phenyl)-benzamide] | 193 | 370
9 | COc1ccc(-c2cc(C(=O)NC(C)(C)C)cc(-c3ccnn3C(C)(C)C)c2)cc1 [Example 31, N-tert-Butyl-3-(2-tert-butyl-pyrazol-3-yl)-5-(4-methoxy-phenyl)-benzamide] | 173 | 250
10 | CC(C)(NC(=O)c1cc(-c2ccc(Cl)cc2)cc(-c2ccnn2C(C)(C)C)c1)C1CC1 [Example 35, 3-(2-tert-Butyl-pyrazol-3-yl)-5-(4-chlorophenyl)-N-(2-cyclopropyl-propan-2-yl)-benzamide] | 166 | 920
11 | CC(C)(C)NC(=O)c1cc(-c2ccc(C3CC3)cc2)cc(-c2ccnn2C(C)(C)C)c1 [Example 37, N-tert-Butyl-3-(2-tert-butyl-pyrazol-3-yl)-5-(4-cyclopropyl-phenyl)-benzamide] | 198.5 | 1130
12 | CC(C)n1nccc1-c1cc(C(=O)NC(C)(C)CO)cc(-c2ccc(Cl)cc2)c1 [Example 39, 3-(4-Chlorophenyl)-N-(1-hydroxy-2-methyl-propan-2-yl)-5-(2-propan-2-yl-pyrazol-3-yl)-benzamide] | 80.5 | 270
13 | CC(C)(C)n1nccc1-c1cc(C(=O)NC(C)(C)C(F)(F)F)cc(-c2ccc(Cl)cc2)c1 [Example 42, 3-(2-tert-Butylpyrazol-3-yl)-5-(4-chlorophenyl)-N-(1,1,1-trifluoro-2-methyl-propan-2-yl)-benzamide] | 81 | 890
14 | CC(C)(C)NC(=O)c1cc(-c2ccc(C(F)(F)F)cc2)cc(-c2ccnn2C2CC2)c1 [Example 43, N-tert-Butyl-3-(2-cyclopropyl-pyrazol-3-yl)-5-[4-(trifluoromethyl)-phenyl]-benzamide] | 72 | 320

Further lines, results first:

Row | melting point [°C] | Kb [1] [nM] | Structure (SMILES)
15 | 94 | 330 | CC(C)n1nccc1-c1cc(C(=O)NC(C)(C)C)cc(-c2ccc(C#N)cc2)c1 [Example 17, N-tert-Butyl-3-(4-cyano-phenyl)-5-(2-propan-2-yl-pyrazol-3-yl)-benzamide]
16 | 81 | 360 | Cc1ccc(-c2cc(C(=O)NC(C)(C)C)cc(-c3ccnn3C(C)C)c2)cc1F [Example 20, N-tert-Butyl-3-(3-fluoro-4-methyl-phenyl)-5-(2-propan-2-yl-pyrazol-3-yl)-benzamide]
17 | 96 | 320 | CC(C)n1nccc1-c1cc(C(=O)NC(C)(C)C#N)cc(-c2ccc(Cl)cc2)c1 [Example 21, 3-(4-Chlorophenyl)-N-(2-cyano-propan-2-yl)-5-(2-propan-2-yl-pyrazol-3-yl)-benzamide]
18 | 66 | 110 | CC(C)(C)NC(=O)c1cc(-c2ccc(F)cc2)cc(-c2ccnn2C2CC2)c1 [Example 23, N-tert-Butyl-3-(2-cyclopropyl-pyrazol-3-yl)-5-(4-fluorophenyl)-benzamide]
19 | 68 | 170 | CCn1nccc1-c1cc(C(=O)NC(C)(C)C)cc(-c2ccc(Cl)cc2)c1 [Example 24, N-tert-Butyl-3-(4-chlorophenyl)-5-(2-ethyl-pyrazol-3-yl)-benzamide]
20 | 159 | 250 | CC(C)(C)NC(=O)c1cc(-c2ccc(Cl)cc2)cc(-c2ccnn2CC2CC2)c1 [Example 25, N-tert-Butyl-3-(4-chlorophenyl)-5-[2-(cyclopropyl-methyl)-pyrazol-3-yl]-benzamide]
21 | 169 | 1520 | CC(C)n1nccc1-c1cc(C(=O)NC(C)(C)C2CC2)cc(-c2ccc(Cl)cc2)c1 [Example 26, 3-(4-Chlorophenyl)-N-(2-cyclopropyl-propan-2-yl)-5-(2-propan-2-yl-pyrazol-3-yl)-benzamide]
22 | 175 | 410 | CC(C)(C)NC(=O)c1cc(-c2ccc(F)c(Cl)c2)cc(-c2ccnn2C(C)(C)C)c1 [Example 32, N-tert-Butyl-3-(2-tert-butyl-pyrazol-3-yl)-5-(3-chloro-4-fluoro-phenyl)-benzamide]
23 | 225 | 290 | CC(C)(C)NC(=O)c1cc(-c2ccc(Cl)c(F)c2)cc(-c2ccnn2C(C)(C)C)c1 [Example 33, N-tert-Butyl-3-(2-tert-butyl-pyrazol-3-yl)-5-(4-chloro-3-fluoro-phenyl)-benzamide]
24 | 209.5 | 600 | CC(C)c1ccc(-c2cc(C(=O)NC(C)(C)C)cc(-c3ccnn3C(C)(C)C)c2)cc1 [Example 34, N-tert-Butyl-3-(2-tert-butyl-pyrazol-3-yl)-5-(4-propan-2-yl-phenyl)-benzamide]
25 | 197.5 | 440 | CC(C)(C)NC(=O)c1cc(-c2ccc(F)c(F)c2)cc(-c2ccnn2C(C)(C)C)c1 [Example 36, N-tert-Butyl-3-(2-tert-butyl-pyrazol-3-yl)-5-(3,4-difluorophenyl)-benzamide]
26 | 201.5 | 240 | CC(C)(C)NC(=O)c1cc(-c2ccc(C#N)cc2)cc(-c2ccnn2C(C)(C)C)c1 [Example 38, N-tert-Butyl-3-(2-tert-butyl-pyrazol-3-yl)-5-(4-cyano-phenyl)-benzamide]
27 | 77.5 | 620 | CC(C)n1nccc1-c1cc(C(=O)NC(C)(C)C(F)(F)F)cc(-c2ccc(Cl)cc2)c1 [Example 40, 3-(4-Chlorophenyl)-5-(2-propan-2-yl-pyrazol-3-yl)-N-(1,1,1-trifluoro-2-methyl-propan-2-yl)-benzamide]
28 | 83 | 260 | CC(C)(CO)NC(=O)c1cc(-c2ccc(Cl)cc2)cc(-c2ccnn2C(C)(C)C)c1 [Example 41, 3-(2-tert-Butyl-pyrazol-3-yl)-5-(4-chlorophenyl)-N-(1-hydroxy-2-methylpropan-2-yl)-benzamide]

Source: US10457644B2, “Pyrazol compounds as EAAT3 inhibitors” (Hoffmann-La Roche Inc., priority 2016, dated 2019)
